For one assay, the system named is alpha-1 receptors. The experiment in a line: Inhibition of binding of [3H]Prazosine to rat alpha-1 receptors. Conditions: [3H]Prazosine 0.25 nM, membranes from rat brain. The procedure: Inhibition of Binding of [^3H]Prazosine to Rat Alpha-1 Receptors
By this method the inhibition by drugs of the binding of [^3H]Prazosine (0.25 nM) to alpha-1 receptors in membranes from rat brain is determined in vitro. Method modified from Hyttel et al. J. Neurochem. 1985, 44, 1615–1622.

The target in assay [1] is T1, human cloned dopamine D4.2 receptors (Homo sapiens, UniProt P21917, DEL265-296).
T1 construct: expressed in transfected cells; host or cells: CHO cells
T1 sequence (P21917 with tags, fused parts or gaps DEL265-296): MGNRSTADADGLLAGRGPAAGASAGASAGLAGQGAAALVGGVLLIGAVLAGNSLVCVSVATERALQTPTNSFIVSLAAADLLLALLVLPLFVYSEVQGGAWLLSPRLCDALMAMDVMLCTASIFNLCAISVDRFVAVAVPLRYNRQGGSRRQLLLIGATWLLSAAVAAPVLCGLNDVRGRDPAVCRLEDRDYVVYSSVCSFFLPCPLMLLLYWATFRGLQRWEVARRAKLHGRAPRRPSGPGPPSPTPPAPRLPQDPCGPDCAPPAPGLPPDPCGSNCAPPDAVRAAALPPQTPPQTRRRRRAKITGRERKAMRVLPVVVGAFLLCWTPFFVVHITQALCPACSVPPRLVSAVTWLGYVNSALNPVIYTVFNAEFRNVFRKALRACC
As to the kind of experiment: Inhibition of the binding of [3H]YM-09151-2 to human dopamine D4 receptors. The settings on record: [3H]YM-09151-2 0.06 nM, membranes of CHO-cells; read-out: D4-bind. IC50. The procedure: Inhibition of the Binding of [^3H]YM-09151-2 to Human Dopamine D4 Receptors
By this method the inhibition by drugs of the binding of [^3H]YM-09151–2 (0.06 nM) to membranes of human cloned dopamine D4.2 receptors expressed in CHO-cells is determined in vitro. Method modified from NEN Life Science Products, Inc., technical data certificate PC2533-10/96.

Assay [2] deals with T2, human cloned dopamine D3 receptors (Homo sapiens, UniProt P35462).
T2 construct: expressed in transfected cells; host or cells: CHO cells
T2 sequence (P35462 whole entry): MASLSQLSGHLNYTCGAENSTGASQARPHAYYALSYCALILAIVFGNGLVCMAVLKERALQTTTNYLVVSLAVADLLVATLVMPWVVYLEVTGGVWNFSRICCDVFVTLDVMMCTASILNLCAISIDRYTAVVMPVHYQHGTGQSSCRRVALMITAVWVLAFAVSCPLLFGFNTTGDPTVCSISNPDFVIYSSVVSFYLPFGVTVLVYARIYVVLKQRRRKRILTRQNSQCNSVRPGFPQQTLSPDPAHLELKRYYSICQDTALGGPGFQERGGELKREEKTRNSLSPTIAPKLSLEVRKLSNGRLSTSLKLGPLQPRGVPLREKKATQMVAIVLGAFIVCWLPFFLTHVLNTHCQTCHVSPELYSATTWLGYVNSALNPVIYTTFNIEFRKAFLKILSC
The experiment in a line: Inhibition of the binding of [3H]Spiperone to human D3 receptors. Conditions: [3H]Spiperone 0.3 nM, membranes of CHO-cells; for inhibition at 0.1 µM: 100 nM, read-out: D3-bind. % inhibition of binding at 100 nM; for IC50: read-out: D3-bind. IC50. The procedure:
Inhibition of the Binding of [^3H]Spiperone to Human D3 Receptors
By this method the inhibition by drugs of the binding [^3H]Spiperone (0.3 nM) to membranes of human cloned dopamine D3 receptors expressed in CHO-cells is determined in vitro. Method modified from MacKenzie et al. Eur. J. Pharm.-Mol. Pharm. Sec. 1994, 266, 79–85.

For `O=C(CCCN1CCN(c2ccccc2F)CC1)N1CCc2ccccc2C1` [Compound 9k, 1-(3,4-Dihydro-1H-isoquinolin-2-yl)-4-[4-(2-fluoro-phenyl)-piperazin-1-yl]-butan-1-one], the “Alpha-1 % inhibition of binding at 100 nM” value in the assay with alpha-1 receptors was found to be 69%. In assay [1], the IC50 was found to be 9 nM. Moreover, in assay [2], the inhibition at 0.1 µM turned out to be 92%.

Consider `O=C1CCc2ccccc2N1CCCCN1CCN(c2cccc(Cl)c2Cl)CC1` [Compound 6, 1-{4-[4-(2,3-Dichlorophenyl)piperazin-1-yl]butyl}-3,4-dihydroquinolin-2(1H)-one], for which the IC50 at alpha-1 receptors was found to be 43 nM; in assay [1] it was 16 nM; in assay [2] it was 1.8 nM.

`O=C(CCCN1CCN(c2cccc(Cl)c2Cl)CC1)N1CCc2ccccc21` [Compound 1b, 4-[4-(2,3-Dichlorophenyl)piperazin-1-yl]-1-(2,3-dihydro-1H-indol-1-yl)butan-1-one]: the IC50 at alpha-1 receptors worked out at 1100 nM; in assay [1], 2.8 nM; in assay [2], 3 nM.

Consider `O=C(CCN1CCN(c2cccc(Cl)c2Cl)CC1)N1CCc2ccccc21` [Compound 1a, 3-[4-(2,3-Dichlorophenyl)piperazin-1-yl]-1-(2,3-dihydro-1H-indol-1-yl)propan-1-one], for which the IC50 at alpha-1 receptors was 59 nM; in assay [1], 3.3 nM; in assay [2] it was 100 nM.

`O=C(CCCN1CCN(c2ccccc2Cl)CC1)N1CCc2ccccc21` [Compound 1d, 4-[4-(2-Chlorophenyl)piperazin-1-yl]-1-(2,3-dihydro-1H-indol-1-yl)butan-1-one]: the figures for the IC50 (on alpha-1 receptors; in assay [1]; in assay [2]) were 97 nM, 0.92 nM and 20 nM, respectively.

For `Clc1ccc2c(SCCN3CCN(c4cccc(Cl)c4Cl)CC3)c[nH]c2c1` [Compound 4, 6-Chloro-3-{2-[4-(2,3-dichlorophenyl)piperazin-1-yl]ethylsulfanyl}-1H-indole], the IC50 at alpha-1 receptors worked out at 4800 nM; in assay [1], 500 nM; in assay [2], 40 nM.

For `Fc1ccc2[nH]cc(CCCN3CCN(c4cccc(Cl)c4Cl)CC3)c2c1` [Compound 5c, 3-{3-[4-(2,3-Dichlorophenyl)piperazin-1-yl]propyl}-5-fluoro-1H-indole], the results for the IC50 (on alpha-1 receptors; in assay [1]; in assay [2]) were 960 nM, 3.9 nM and 6.8 nM, respectively.

As for `Clc1cccc(N2CCN(CCCCc3c[nH]c4ccccc34)CC2)c1Cl` [Compound 5b, 3-{4-[4-(2,3-Dichlorophenyl)piperazin-1-yl]butyl}-1H-indole], the IC50 at alpha-1 receptors was determined as 570 nM; in assay [1], 14 nM; in assay [2], 1.1 nM.

With `O=C(CCCN1CCN(c2cccc(Cl)c2Cl)CC1)N1CCc2cc(F)ccc21` [Compound 7b, 4-[4-(2,3-Dichlorophenyl)piperazin-1-yl]-1-(5-fluoro-2,3-dihydro-1H-indol-1-yl)butan-1-one], the “Alpha-1 % inhibition of binding at 100 nM” value in the assay on alpha-1 receptors was 6%. The concentration for half-maximal inhibition (IC50) in assay [1] is 53 nM. Moreover, the inhibition at 0.1 µM in assay [2] was 65%.

For `Clc1cccc(N2CCN(CCCCCN3CCc4ccccc43)CC2)c1Cl` [Compound 2c, 1-{5-[4-(2,3-Dichlorophenyl)piperazin-1-yl]pentyl}-2,3-dihydro-1H-indole], the IC50 on alpha-1 receptors came out at 190 nM; in assay [1], 18 nM; in assay [2], 22 nM.

Regarding `Clc1cccc(N2CCN(CCCN3CCc4ccccc43)CC2)c1Cl` [Compound 2a, 1-{3-[4-(2,3-Dichlorophenyl)piperazin-1-yl]propyl}-2,3-dihydro-1H-indole], the concentration for half-maximal inhibition (IC50) came out at 68 nM on alpha-1 receptors, 1.8 nM in assay [1] and 31 nM in assay [2].

Regarding `Clc1cccc(N2CCN(CCCCN3CCc4ccccc43)CC2)c1` [Compound 2e, 1-{4-[4-(3-Chlorophenyl)piperazin-1-yl]butyl}-2,3-dihydro-1H-indole], the IC50 on alpha-1 receptors was found to be 40 nM; in assay [1], 1.6 nM; in assay [2], 17 nM.

The record behind these values is US7074796B2 (H. Lundbeck A/S, priority 1999, dated 2006).
